Measured values reported in patent US20230257347A1 (priority 2020, published 2023).
Where a name gives a salt, the structure may show the parent alone.

Key:
[1] = biological target: 5-Hydroxytryptamine (Serotonin) Receptor 1B (5-HT1B) (Homo sapiens, UniProt P28222); experiment: cAMP secondary messenger assay, 5-HT1B; assay type: cell-based
[2] = biological target: T1, KvLQT1/minK (Homo sapiens, UniProt P15382+P51787); experiment: Ion channel assay, KvLQT1/minK; assay type: cell-based
T1 construct: expressed in transfected cells

[3] = biological target: T2, Nicotinic acetylcholine Receptor α4 β2 (nAChR(a4/b2)) (Homo sapiens, UniProt P17787+P43681); experiment: cell-based
T2 construct: expressed in transfected cells
T2 sequence (P43681 29-627 limits assumed): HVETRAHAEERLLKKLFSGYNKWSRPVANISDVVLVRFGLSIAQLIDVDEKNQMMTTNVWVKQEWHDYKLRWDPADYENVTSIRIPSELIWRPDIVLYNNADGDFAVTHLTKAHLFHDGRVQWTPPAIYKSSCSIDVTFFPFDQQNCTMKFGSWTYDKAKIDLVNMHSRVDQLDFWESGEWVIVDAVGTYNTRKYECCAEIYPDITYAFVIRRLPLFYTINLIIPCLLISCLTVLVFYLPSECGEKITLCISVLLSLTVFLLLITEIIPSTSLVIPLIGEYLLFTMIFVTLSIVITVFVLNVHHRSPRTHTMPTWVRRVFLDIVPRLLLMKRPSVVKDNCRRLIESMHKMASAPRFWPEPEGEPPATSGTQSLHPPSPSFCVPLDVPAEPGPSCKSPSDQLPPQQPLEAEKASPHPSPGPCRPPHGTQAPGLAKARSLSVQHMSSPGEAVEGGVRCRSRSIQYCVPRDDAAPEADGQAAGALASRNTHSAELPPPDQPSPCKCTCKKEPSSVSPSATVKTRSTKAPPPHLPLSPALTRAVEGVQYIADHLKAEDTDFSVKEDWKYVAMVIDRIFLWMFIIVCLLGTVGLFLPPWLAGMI
T2 sequence (P17787 26-502): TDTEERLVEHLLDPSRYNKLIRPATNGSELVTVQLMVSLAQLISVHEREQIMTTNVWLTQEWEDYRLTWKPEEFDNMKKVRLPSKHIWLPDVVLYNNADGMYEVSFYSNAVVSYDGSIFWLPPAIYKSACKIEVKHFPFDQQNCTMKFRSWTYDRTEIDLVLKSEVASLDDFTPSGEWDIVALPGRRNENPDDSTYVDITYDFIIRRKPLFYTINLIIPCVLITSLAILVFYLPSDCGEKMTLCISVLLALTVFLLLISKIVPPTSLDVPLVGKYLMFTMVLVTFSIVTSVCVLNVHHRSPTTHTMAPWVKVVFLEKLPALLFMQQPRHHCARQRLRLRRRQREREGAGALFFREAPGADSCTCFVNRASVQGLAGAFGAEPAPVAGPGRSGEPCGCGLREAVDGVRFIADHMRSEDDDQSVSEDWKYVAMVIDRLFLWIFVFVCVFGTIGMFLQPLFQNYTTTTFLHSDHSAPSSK

[4] = biological target: Histamine Receptor H2 (HRH2) (Homo sapiens, UniProt P25021); experiment: cAMP assay, HRH2; assay type: cell-based
[5] = biological target: T3, Voltage-gated L-type calcium channel (CAV1.2) (Homo sapiens, UniProt Q13936); experiment: Ion channel assay, CAV1.2; assay type: cell-based
T3 construct: expressed in transfected cells
T3 sequence (Q13936 whole entry, looked up): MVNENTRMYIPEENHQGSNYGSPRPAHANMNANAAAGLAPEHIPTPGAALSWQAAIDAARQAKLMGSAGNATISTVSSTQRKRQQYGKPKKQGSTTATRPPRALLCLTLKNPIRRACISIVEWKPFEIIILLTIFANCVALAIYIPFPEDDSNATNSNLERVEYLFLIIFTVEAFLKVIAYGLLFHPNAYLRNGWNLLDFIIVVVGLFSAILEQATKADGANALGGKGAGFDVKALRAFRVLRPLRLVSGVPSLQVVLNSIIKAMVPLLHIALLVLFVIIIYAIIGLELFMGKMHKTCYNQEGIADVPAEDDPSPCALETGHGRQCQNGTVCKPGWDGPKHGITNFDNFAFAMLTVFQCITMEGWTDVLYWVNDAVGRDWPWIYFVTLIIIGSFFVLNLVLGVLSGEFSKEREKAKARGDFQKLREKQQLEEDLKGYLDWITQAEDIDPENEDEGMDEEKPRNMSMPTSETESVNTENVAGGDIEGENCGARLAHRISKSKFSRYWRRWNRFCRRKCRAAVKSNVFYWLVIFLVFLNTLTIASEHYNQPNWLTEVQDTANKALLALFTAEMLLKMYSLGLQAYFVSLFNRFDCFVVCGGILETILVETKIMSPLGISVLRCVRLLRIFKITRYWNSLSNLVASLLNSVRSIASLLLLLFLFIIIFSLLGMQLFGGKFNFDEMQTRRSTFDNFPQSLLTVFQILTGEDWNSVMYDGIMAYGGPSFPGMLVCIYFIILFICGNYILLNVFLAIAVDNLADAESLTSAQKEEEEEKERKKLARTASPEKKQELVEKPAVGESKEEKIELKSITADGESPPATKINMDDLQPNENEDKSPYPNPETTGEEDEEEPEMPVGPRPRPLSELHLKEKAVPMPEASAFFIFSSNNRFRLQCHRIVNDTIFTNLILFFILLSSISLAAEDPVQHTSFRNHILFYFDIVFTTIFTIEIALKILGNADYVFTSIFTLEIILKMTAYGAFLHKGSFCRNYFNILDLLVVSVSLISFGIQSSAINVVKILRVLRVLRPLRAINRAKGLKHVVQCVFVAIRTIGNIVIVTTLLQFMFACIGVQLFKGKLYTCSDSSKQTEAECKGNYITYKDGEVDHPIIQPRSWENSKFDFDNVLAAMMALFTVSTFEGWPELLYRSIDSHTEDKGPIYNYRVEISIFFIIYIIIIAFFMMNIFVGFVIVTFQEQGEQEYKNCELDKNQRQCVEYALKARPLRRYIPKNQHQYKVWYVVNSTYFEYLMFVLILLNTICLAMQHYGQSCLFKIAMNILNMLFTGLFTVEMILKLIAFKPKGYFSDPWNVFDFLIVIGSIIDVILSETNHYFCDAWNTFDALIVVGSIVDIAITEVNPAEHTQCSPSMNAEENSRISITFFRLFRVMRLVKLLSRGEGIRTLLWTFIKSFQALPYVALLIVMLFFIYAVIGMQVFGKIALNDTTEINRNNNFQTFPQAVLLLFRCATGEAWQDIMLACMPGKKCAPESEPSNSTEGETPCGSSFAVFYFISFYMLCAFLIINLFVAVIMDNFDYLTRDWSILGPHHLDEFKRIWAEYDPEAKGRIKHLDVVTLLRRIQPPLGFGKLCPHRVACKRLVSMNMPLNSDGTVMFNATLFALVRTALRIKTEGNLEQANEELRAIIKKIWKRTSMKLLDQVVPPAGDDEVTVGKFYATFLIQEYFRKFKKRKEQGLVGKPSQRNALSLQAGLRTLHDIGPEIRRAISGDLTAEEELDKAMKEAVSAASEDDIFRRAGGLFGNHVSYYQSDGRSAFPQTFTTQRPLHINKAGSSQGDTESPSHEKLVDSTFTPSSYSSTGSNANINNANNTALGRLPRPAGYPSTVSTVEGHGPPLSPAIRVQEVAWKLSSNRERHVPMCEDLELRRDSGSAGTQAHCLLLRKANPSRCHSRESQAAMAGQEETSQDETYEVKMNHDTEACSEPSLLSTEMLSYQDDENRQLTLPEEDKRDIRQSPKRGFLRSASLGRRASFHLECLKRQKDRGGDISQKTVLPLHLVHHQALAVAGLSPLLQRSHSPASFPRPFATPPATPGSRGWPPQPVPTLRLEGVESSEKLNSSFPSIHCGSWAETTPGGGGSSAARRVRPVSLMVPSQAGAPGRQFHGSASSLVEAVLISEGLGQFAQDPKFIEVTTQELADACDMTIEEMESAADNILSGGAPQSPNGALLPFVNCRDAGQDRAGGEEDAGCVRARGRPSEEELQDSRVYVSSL

[6] = biological target: Opioid Receptor Mu (OPRM1) (Homo sapiens, UniProt P35372); experiment: cell-based
Chain of Opioid Receptor Mu (OPRM1) (P35372 whole entry): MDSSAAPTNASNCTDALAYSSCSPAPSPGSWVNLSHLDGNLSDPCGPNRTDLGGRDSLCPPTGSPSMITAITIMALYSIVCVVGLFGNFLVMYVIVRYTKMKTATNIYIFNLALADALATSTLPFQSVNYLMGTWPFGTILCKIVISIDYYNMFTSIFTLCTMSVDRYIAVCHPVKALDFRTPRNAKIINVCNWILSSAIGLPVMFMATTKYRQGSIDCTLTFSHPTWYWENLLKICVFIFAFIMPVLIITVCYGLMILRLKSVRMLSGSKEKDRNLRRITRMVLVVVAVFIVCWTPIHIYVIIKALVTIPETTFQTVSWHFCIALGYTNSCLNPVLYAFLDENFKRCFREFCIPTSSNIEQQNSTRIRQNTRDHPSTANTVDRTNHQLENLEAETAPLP

[7] = biological target: T4, Lymphocyte Cell-Specific Protein-Tyrosine Kinase (LCK) (Homo sapiens, UniProt P06239); experiment: KINOMEscan binding assay, LCK
T4 construct: made in house; host or cells: E. coli BL21-derived host (T7 phage) or HEK-293

[8] = biological target: T5, Insulin Receptor (tyrosine kinase) (INSR) (Homo sapiens, UniProt P06213); experiment: KINOMEscan binding assay, INSR
T5 construct: made in house; host or cells: E. coli BL21-derived host (T7 phage) or HEK-293
T5 sequence (P06213 28-1382): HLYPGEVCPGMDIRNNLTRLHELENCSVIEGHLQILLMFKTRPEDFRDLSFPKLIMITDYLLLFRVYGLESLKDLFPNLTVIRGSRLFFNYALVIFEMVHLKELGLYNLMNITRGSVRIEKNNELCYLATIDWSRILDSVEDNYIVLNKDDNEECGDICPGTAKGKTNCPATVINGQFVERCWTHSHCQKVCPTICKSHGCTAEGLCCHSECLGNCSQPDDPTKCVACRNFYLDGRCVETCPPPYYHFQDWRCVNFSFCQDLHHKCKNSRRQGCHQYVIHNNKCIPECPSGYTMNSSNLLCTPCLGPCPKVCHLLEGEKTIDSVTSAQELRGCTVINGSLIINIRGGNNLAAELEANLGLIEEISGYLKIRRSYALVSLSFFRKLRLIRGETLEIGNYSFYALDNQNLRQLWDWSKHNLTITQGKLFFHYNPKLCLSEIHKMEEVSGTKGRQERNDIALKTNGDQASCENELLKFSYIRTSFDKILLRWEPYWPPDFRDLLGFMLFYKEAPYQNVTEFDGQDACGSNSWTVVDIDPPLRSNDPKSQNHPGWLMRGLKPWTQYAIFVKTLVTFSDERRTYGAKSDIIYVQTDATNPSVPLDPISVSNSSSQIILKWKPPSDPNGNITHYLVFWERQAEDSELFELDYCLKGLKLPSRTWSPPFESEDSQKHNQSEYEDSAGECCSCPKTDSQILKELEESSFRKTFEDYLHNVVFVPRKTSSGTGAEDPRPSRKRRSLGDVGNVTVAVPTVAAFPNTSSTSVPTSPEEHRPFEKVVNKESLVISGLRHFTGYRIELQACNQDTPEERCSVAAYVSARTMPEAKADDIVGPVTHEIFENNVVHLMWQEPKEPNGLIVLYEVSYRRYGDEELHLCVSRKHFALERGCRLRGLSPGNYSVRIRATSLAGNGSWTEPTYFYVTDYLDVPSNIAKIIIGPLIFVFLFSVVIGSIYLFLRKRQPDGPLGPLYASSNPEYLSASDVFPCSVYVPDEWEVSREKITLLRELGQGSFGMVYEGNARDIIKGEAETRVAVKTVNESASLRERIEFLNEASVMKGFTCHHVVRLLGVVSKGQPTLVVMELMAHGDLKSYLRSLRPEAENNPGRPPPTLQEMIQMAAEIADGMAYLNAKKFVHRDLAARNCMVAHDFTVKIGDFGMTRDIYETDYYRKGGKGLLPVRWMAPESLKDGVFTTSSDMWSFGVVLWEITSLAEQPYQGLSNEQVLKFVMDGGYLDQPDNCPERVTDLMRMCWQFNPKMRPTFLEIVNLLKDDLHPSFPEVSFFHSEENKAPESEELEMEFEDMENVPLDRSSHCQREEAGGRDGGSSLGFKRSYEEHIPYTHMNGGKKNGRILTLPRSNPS

[9] = biological target: T6, Vascular endothelial growth factor receptor 2 (KDR tyrosine kinase) (VEGFR2) (Homo sapiens, UniProt P35968); experiment: biochemical; assay type: binding
T6 construct: made in house; host or cells: E. coli BL21-derived host (T7 phage) or HEK-293

[10] = biological target: T7, Cholecystokinin Receptor A (CCKAR) (Homo sapiens, UniProt P32238); experiment: Calcium flux assay, CCKAR; assay type: cell-based
T7 sequence (P32238 1-428): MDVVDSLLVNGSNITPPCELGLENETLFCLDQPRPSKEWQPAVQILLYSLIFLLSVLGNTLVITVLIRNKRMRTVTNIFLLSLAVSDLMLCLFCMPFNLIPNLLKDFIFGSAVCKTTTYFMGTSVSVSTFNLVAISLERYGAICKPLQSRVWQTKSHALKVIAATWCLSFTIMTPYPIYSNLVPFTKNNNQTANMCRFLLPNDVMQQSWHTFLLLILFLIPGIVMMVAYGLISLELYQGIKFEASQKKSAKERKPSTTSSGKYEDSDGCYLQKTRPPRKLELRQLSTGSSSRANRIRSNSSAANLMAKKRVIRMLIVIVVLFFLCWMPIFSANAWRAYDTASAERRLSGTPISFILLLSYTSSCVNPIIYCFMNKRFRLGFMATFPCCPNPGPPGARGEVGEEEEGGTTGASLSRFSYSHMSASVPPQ

[11] = biological target: 5-Hydroxytryptamine (Serotonin) Receptor 2A (5-HT2A) (Homo sapiens, UniProt P28223); experiment: Calcium flux secondary messenger assay, 5-HT2A; assay type: cell-based
[12] = biological target: T8, Nuclear Hormone Glucocorticoid Receptor (GR) (Homo sapiens, UniProt P04150); experiment: NHR Protein Interaction assay, GR; assay type: cell-based
T8 sequence (P04150 1-777): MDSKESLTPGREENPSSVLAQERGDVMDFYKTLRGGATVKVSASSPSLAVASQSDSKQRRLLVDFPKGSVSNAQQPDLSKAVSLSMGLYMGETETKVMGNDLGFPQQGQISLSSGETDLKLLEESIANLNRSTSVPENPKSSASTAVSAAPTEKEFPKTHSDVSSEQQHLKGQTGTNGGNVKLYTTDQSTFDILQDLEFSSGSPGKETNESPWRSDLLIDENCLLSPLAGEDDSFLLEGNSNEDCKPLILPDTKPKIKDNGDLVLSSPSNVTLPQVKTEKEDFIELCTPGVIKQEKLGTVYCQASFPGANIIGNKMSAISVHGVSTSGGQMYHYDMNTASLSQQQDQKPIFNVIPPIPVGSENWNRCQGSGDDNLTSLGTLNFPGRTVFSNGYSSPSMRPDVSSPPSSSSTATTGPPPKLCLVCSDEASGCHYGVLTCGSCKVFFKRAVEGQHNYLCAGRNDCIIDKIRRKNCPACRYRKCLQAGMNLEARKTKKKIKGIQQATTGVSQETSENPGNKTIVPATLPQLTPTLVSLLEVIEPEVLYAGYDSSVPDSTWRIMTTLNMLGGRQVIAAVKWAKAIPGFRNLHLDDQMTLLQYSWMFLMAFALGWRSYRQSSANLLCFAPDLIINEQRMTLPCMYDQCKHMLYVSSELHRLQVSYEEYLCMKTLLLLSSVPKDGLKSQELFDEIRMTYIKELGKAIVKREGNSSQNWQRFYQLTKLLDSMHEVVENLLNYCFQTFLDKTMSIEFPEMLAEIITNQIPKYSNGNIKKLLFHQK

[13] = biological target: T9, Adrenergic Receptor α2A (ADRA2A) (Homo sapiens, UniProt P08913); experiment: cAMP assay, ADRA2A; assay type: cell-based
T9 sequence (P08913 1-465): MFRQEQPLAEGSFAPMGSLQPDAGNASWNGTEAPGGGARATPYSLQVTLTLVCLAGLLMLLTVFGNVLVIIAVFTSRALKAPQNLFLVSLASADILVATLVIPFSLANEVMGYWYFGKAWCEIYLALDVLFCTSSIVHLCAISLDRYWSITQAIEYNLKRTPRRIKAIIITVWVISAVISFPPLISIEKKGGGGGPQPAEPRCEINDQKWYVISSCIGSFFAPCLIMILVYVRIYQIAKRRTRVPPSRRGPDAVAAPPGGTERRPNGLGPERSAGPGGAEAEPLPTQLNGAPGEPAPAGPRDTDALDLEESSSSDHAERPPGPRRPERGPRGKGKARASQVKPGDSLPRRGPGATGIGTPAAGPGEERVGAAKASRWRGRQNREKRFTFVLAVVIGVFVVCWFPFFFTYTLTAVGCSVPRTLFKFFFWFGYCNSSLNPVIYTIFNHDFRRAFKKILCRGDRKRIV

Compound	EC50 [1] [µM]	IC50 [1] [µM]	EC50 [2] [µM]	IC50 [2] [µM]	EC50 [3] [µM]	IC50 [3] [µM]	EC50 [4] [µM]	IC50 [4] [µM]	IC50 [5] [µM]	EC50 [6] [µM]	IC50 [6] [µM]	IC50 [7] [µM]	IC50 [8] [µM]	IC50 [9] [µM]	EC50 [10] [µM]	IC50 [10] [µM]	EC50 [11] [µM]	IC50 [11] [µM]	EC50 [12] [µM]	IC50 [12] [µM]	also measured
CNC(C)C(=O)c1c[nH]c2ccc(Br)cc12 (stereo not drawn) [BK-5Br-NM-AMT, 1-(5-bromo-1H-indol-3-yl)-2-(methylamino) propan-1-one hydrochloride]	> 10	> 10	> 10	> 10	> 10	> 10	> 10	> 10	> 10	> 10	> 10	> 10	> 10	> 10	> 10	> 10	> 10	8.63	> 10	> 10	EC50 [13]: > 10 µM; IC50 [13]: > 10 µM
CNC(C)C(=O)c1c[nH]c2ccc(Cl)cc12 (stereo not drawn) [BK-5Cl-NM-AMT, 1-(5-chloro-1H-indol-3-yl)-2-(methylamino) propan-1-one hydrochloride]	> 10	> 10	> 10	> 10	> 10	> 10	> 10	> 10	> 10	> 10	> 10	> 10	> 10	> 10	> 10	> 10	> 10	> 10	> 10	> 10	EC50 [13]: > 10 µM; IC50 [13]: > 10 µM
CNC(C)C(=O)c1c[nH]c2ccc(F)cc12 (stereo not drawn) [BK-5F-NM-AMT, 1-(5-Fluoro-1H-indol-3-yl)-2-(methylamino) propan-1-one hydrochloride]	> 10	> 10	> 10	> 10	> 10	> 10	> 10	> 10	> 10	> 10	> 10	> 10	> 10	> 10	> 10	> 10	> 10	> 10	> 10	> 10	EC50 [13]: > 10 µM; IC50 [13]: > 10 µM
